Non-standard residues stand in square brackets, D forms with d. βAla = NCCC(=O)O
Key:
[1] = test system: carnitine; assay: Carnitine levels in mouse tissues; type: in vivo, mice; conditions: 250 mg/kg i.p. for 5 consecutive days
Description: Male ICR mice were injected i.p. with 250 mg/kg DY-65 for 5 consecutive days. Half an hour after the last injection lung, heart, skeletal muscle (femural), brain, liver, kidney and blood were removed, homogenized (100 mg tissue in 200 μl distilled water), centrifuged and filtrated through 30K Microcon® filter. Carnitine analysis was carried out by a commercial kit (BioVision, catalogue number K642-100). n=4 for each group.

[2] = test system: anti-OVA serum IgE; assay: Ovalbumin-induced hypersensitivity: serum anti-OVA IgE; type: in vivo, mice; conditions: for effect on OVA-induced elevation of anti-OVA serum IgE titer (in words) / rank order of reduction of anti-OVA serum IgE titer: 125 mg/kg i.p. on days 13, 14, 15, blood day 16
Description: Male BALB/c mice (6-8 weeks old) were housed under specific pathogen-free conditions and maintained on a 12-hour light/dark cycle, with food and water ad libitum. All materials and drugs were obtained from Sigma, Inc.
Mice in Groups A, B, C, and E (n=10 per group) were sensitized with intraperitoneal (i.p.) 200 μl of sterile PBS containing 100 μg ovalbumin (OVA) and 1.6 mg alum on days 0 and 7, and challenged with intraperitoneal (i.p.) 200 μl of sterile PBS containing 10 μg ovalbumin (OVA) on day 14 in order to induce an experimental model of allergic peritonitis. Mice in Group F (n=10) were injected with intraperitoneal (i.p) 200 μl sterile PBS (“sham” group, no OVA and no Alum).
Mice in Groups A, B, and C, were treated with 150 μl of sterile PBS containing peptides DY-66, DY-65 and DY-70, respectively, at a dose of 125 mg/kg on days 13, 14, and 15 via an i.p. route of administration.
Mice in Groups E and F were treated with 150 μl of sterile PBS on days 13, 14, and 15 via an i.p. route of administration. On day 14 the test articles (or PBS vehicle) were injected 30 minutes before injecting the OVA.
Blood taken on day 16 was tested for 1) serum anti-OVA IgE, 2) white blood cell count and differential (including absolute and percentage of eosinophils count). Serum was frozen at −80° C. for future optional blood tests.

[3] = test system: HaCaT cells; assay: Hydrogen peroxide-induced HaCaT keratinocyte cytotoxicity (MTT); type: cell-based; conditions: 90 μM hydrogen peroxide 30 min; MTT after 72 hours
Description: All five peptides were examined in this Example, and their activity was compared to the known CB3 peptide. HaCaT cells were seeded in 96-well plate at a concentration of 10×10^4 cells/ml for 24 hours. Then cells were incubated with the peptides at the indicated concentrations for 2.5 hours followed by washing with PBS and incubation with 90 μM hydrogen peroxide (without peptide) for 30 minutes. Cells were washed with PBS and incubated with culture medium containing peptide for 72 hours. Cell viability was tested by MTT. The effect of the peptides on cell viability was performed similarly without hydrogen peroxide exposure.

[4] = test system: HaCaT cells; assay: UVB-induced cytotoxicity in HaCaT cells (MTT); type: cell-based; conditions: UVB 0.05 J/cm^2; MTT after 72 hours
Description: HaCaT cells were seeded in 96-wells plate (10×10^4/ml) and incubated in 37° C., 6% CO2 for 24 hours. Cells were incubated with the peptides at the indicated concentrations for 2.5 hours and washed (PBS). Then 100 μl PBS were added to each well followed by UVB irradiation (0.05 J/cm^2). Cells were washed with PBS and incubated with culture medium (DMEM, 100 μl) containing the peptides. MTT assay was carried out after 72 hours.

[5] = Metal chelation: ferric ion binding by mass spectra (ESI); conditions: 0.83 mM peptide, 1.66 mM FeCL3, 1 hour room temperature
Description: All five peptides were examined for their ability to bind copper and ferric ions. 0.83 mM of each peptide were mixed with 1.66 mM of either FeCL3 or CuSO4. The mixtures were incubated for 1 hour at room temperature and further kept at ° 4 C until analysis. Samples were analyzed by mass spectra (ESI).

[6] = test system: granulocytes at the peritoneal lavages; assay: Ovalbumin-induced hypersensitivity: percentage of granulocytes in peritoneal lavage (FACS); type: in vivo, mice; conditions: 125 mg/kg; Mann-Whitney with Bonferroni correction, p<=0.0125
Description: Hypersensitivity was induced as described in Example 5. The mice were treated according to the above protocol with PBS alone (“PBS”, no OVA and no Alum), OVA (“OVA”), OVA+CB3 104 mg/kg, OVA+DY-66 83 mg/kg and OVA+DY-66 125 mg/kg. In all groups, 9 mice were used except for OVA+DY-66 83 mg/kg, where 10 mice were used.
At day 16 the animals were sacrificed, the peritoneum was washed with 4-5 ml of sterile PBS, centrifuged and the cells were re-suspended in sterile PBS containing FCS 2%.
Percentage of granulocytes at the peritoneal lavages were measured by the use of FACS machine analysis of all cells during 10 second flow, followed by a careful analysis of the FACS dot plots.

[7] = test system: ROS; assay: ROS levels in C57Bl/6 mice after LPS injection; type: in vivo; conditions: 6 h after LPS
Description: C57BL/6 female mice (7-8 weeks old) were injected i.p. with the peptide or PBS on days −3, −2, −1 at a dose of 50 mg/kg or with PBS alone (6 mice in each group). On day zero all the mice were injected i.p. with 200 μg/mouse of LPS and 45 min. later they were injected i.p. with 150 mg/kg of the peptide. Another group of 3 mice served as normal untreated mice. […]

[8] = test system: NF-κB; assay: Nuclear translocation of NF-κB in lung, zymosan-induced inflammation; type: in vivo, mice; conditions: lung tissue, 24 hours after zymosan; i.p. dosing as Example 3; p<0.05
Description: Male BALB/c mice were randomly allocated into the following experimental groups:
The peptides were administered by an intraperitoneal (i.p.) route of administration as described in Example 3.
The peptides were formulated in D5W as described in Example 3. The vehicle control was D5W.
At 24 hours after administration of zymosan, animals were euthanized and assessed for inflammation by an NF-κB analysis of lung tissue.
Tissues were homogenized and nuclear extracts prepared via centrifugation. […]

Substance	increase in the level of carnitine in other tissues [1]	increase in the level of carnitine in some tissues ([1]; significant elevation)	effect on OVA-induced elevation of anti-OVA serum IgE titer (in words) [2]	rank order of reduction of anti-OVA serum IgE titer [2]	greatest reduction of the OVA-induced elevation of anti-OVA serum IgE ([2]; 125 mg/kg i.p., % of the OVA-induced elevation)	protection of cell viability after hydrogen peroxide exposure (in words) [3]	protection against UVB-induced cytotoxicity (in words) [4]	FeCl binding (in words) [5]	difference in percentage of granulocytes (medians) between OVA and OVA+peptide [6]	ROS levels in platelets and RBCs compared to PBS-treated mice (in words) ([7]; 50 mg/kg i.p. days -3,-2,-1 and 150 mg/kg 45 min after LPS)	ROS level in platelets, % of the level in PBS-treated mice ([7]; p<0.005)	ROS level in RBCs, % of the level in PBS-treated mice ([7]; p<0.05)	inhibition of the increase in nuclear p65 translocation [8]
N-acetyl-Cys-Lys-Met-Cys-NH2 (Ac-CKMC-NH2; cysteine pairing not given here) [DY-65]	about 70%	about 150%	significantly reduced the elevation	DY-65>DY-70>DY-66	ca. 60%	slightly elevated cell viability	protective effect at low concentrations	–	–	–	–	–	–
N-acetyl-Cys-βAla-His-Cys-NH2 (Ac-C[βAla]HC-NH2; cysteine pairing not given here) [DY-66]	–	–	significantly reduced the elevation	DY-65>DY-70>DY-66	–	slightly elevated cell viability	protective effect at low concentrations	binding was observed	highly significant	significant reduction in ROS levels	approximately 55%	approximately 75%	ca. 80%

Source: patent publication US8802635B2, “Antioxidant, anti-inflammatory, anti-radiation, metal chelating compounds and uses thereof” (Oneday—Biotech And Pharma Ltd., priority 2011, dated 2014)
